{"source": "patent US20100112055A1", "about": "“MICROPOROUS FILM AND PREPARATION AND USE THEREOF” (NATIONAL TAIWAN UNIVERSITY, priority 2008, published 2010)", "assay": "Pharmacokinetic study in vivo, plasma theophylline by HPLC", "details": "male, rabbit, rabbits, intravenous injection, n = 5", "method": "The male rabbits were used as an animal model in this invention. Each rabbit was intravenous injection of theophylline solution, orally administered an uncoated theophylline core tablet (TH-Lac) and a coated micropore-controlled release tablet (TH-Lac-A50), respectively. Blood samples were collected at specific time points, and the plasma concentrations of theophylline were analyzed by high-performance liquid chromatography equipped with a reverse-phase column (Hypersil BDS C18, 250×4.6 mm, 5 μm) and a UV spectrophotometer at a wavelength of 272 nm (Shimadzu SPD-6AV). The mobile phase constituted by acetonitrile and 0.2 M acetate buffer solution (pH 4.5) in the ratio of 6.5:93.5% v/v was applied at a flow rate of 1.0 mL/min.", "data": [{"molecule": "Cn1c(=O)c2[nH]cnc2n(C)c1=O", "note": "[IV-TH, theophylline]", "values": [{"measurement": "AUC(0-inf)", "result": "117 ± 25.9", "unit": "µg·h/mL"}, {"measurement": "Cmax", "result": "21200 ± 1990", "unit": "ng/mL"}, {"measurement": "MRT", "result": "7.7 ± 1.16", "unit": "h"}, {"measurement": "Tmax", "result": 0.25, "unit": "h"}]}]}
